Assay results from US20150342954A1, “2-BENZYL, 3-(PYRIMIDIN-2-YL) SUBSTITUTED PYRAZOLES USEFUL AS SGC STIMULATORS” (IRONWOOD PHARMACEUTICALS, INC., priority 2011, published 2015).
pEC50, pIC50: −log10 of the molar value. Where two headings read alike, the source gives them in different places.

Legend:
[1] = tested on: lambs with acute pulmonary hypertension; conditions: cited from earlier work; for pulmonary vasodilation / effect on mean arterial pressure / systemic arterial oxygenation / transpulmonary cGMP release: inhaled microparticles, awake lambs, U-46619 infusion; for pulmonary vasodilation: mean pulmonary arterial pressure 35 mm Hg
[2] = tested on: Guinea pig tracheal smooth muscle (GPTSM); experiment: Electrical field stimulated guinea pig tracheal smooth muscle in vitro (ex vivo) model of bronchodilation; conditions: Cavia porcellus; guinea pig tracheal strips, sub-maximal EFS; 95% CI 0.78-0.94; read-out: IC50, inhibition of EFS-induced tracheal smooth muscle contraction
Excerpt: Electrical Field Stimulated Guinea Pig Tracheal Smooth Muscle In Vitro (Ex Vivo) Model for the Assessment of Bronchodilation.
It is possible to assess the bronchodilating effects of sGC stimulators by using the system described below. This system allowed us to determine potency, efficacy and duration of action of several sGC stimulators, as well as to assess potential side effects such as blood pressure, or heart rate changes. […]
On each experimental day, a guinea pig was killed by exposure to a rising concentration of CO2 and the trachea removed. […] Tissues were washed with Kreb's buffer and stimulated using the previously determined sub-maximal voltage for 1 hour to establish a stable baseline contraction prior to assessment of compound activity.
A cumulative dose response curve (DRC) to each test substance was then performed and changes in smooth muscle contraction measured. The effect of each test substance in each experiment was expressed as a percentage inhibition of the baseline contraction, normalized to the relevant vehicle controls. […] The data from all three experiments was pooled, the DRC plotted, and the test substance potency and efficacy determined.

[3] = target: T1, soluble guanylate cyclase (sGC) (Homo sapiens, UniProt Q02108+Q02153); experiment: sGC-HEK-cGMP assay (run with SNP incubation); type: cell-based; conditions: for pEC50: in the presence of 10 μM SNP
T1 construct: endogenously expressing soluble guanylate cyclase (sGC); endogenous in cells; host or cells: HEK293
T1 sequence (Q02153 1-619): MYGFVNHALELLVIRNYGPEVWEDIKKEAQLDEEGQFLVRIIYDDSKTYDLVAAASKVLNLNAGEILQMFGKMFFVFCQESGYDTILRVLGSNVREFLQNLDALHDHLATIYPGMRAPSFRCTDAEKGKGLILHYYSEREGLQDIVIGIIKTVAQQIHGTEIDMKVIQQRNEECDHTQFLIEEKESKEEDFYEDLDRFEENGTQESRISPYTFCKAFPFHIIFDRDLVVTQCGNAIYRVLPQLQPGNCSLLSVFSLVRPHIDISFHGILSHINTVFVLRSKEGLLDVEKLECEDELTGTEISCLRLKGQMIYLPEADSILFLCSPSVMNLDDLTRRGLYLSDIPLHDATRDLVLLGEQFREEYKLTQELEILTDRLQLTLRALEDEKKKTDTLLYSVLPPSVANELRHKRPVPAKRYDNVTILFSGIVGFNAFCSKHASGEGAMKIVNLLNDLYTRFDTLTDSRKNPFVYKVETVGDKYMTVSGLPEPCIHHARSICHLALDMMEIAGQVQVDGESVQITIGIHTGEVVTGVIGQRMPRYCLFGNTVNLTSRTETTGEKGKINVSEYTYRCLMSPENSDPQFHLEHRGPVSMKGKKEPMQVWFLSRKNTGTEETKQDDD
T1 sequence (Q02108 1-690): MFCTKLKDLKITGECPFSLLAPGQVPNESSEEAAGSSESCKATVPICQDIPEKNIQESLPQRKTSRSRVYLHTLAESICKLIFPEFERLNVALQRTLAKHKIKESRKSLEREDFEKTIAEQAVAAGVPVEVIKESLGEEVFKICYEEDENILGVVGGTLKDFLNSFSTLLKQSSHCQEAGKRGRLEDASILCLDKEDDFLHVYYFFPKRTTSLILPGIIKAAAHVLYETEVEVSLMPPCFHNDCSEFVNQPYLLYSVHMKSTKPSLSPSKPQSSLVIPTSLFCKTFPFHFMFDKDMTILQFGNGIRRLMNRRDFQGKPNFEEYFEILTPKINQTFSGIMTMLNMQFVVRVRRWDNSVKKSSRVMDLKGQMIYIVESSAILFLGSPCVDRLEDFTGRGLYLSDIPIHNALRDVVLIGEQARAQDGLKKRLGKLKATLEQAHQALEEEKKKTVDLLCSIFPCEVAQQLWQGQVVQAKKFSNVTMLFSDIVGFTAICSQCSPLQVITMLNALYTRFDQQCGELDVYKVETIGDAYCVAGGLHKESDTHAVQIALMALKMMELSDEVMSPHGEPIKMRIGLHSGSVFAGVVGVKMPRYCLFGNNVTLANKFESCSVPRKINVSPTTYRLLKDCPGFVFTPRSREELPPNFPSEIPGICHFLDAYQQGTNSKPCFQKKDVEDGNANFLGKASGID
Procedure, shortened: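 HEK293 cells with endogenous sGC were pre-treated 15 min at 37 °C with 0.5 mM IBMX, then exposed to test compound plus sodium nitroprusside for 10 min at 37 °C. Cells were lysed in 0.1 M HCl (4 °C, 30 min), and cGMP was quantified by LC/MS against a standard curve. EC50 values came from concentration-response curves.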

[4] = tested on: Thoracic aortic rings; experiment: Alternative thoracic aortic rings assay (Example 5; original resting tension as 100% inhibition); conditions: rat thoracic aortic rings contracted with phenylephrine
Procedure: Thoracic aortic rings were dissected from anesthetized (isoflurane) male Sprague-Dawley rats weighing 275-299 g. Tissues were immediately transferred to ice-cold Krebs-Henseleit solution, which had been aerated with 95% 02 and 5% CO2 for 30 minutes. Following removal of connective tissue, aortic sections were cut into 4 rings (˜2 mm each) and suspended on 2 L-shaped hooks, with one hook fixed at the bottom of the tissue bath (Schuler Organ Bath, Harvard Apparatus) and the other connected to a force transducer (F30 Force Transducer, Harvard Apparatus). Baths contained Krebs Henseleit solution (10 mL) heated to 37° C. and aerated with 95% 02 and 5% CO2. Rings were brought to an initial tension of 0.3-0.5 g and gradually raised to a resting tension of 1.0 g over 60 minutes. Rings were rinsed with Krebs Henseleit solution (heated to 37° C. and aerated with 95% 02 and 5% CO2) at 15 minute intervals until a stable baseline was obtained. Rings were considered to be stable after a resting tension of 1.0 g was maintained (for approximately 10 minutes) without need for adjustment. Rings were then contracted with 100 ng/mL phenylephrine by adding 100 μL of a 10 μg/mL phenylephrine stock solution. Tissues achieving a stable contraction were then treated in a cumulative, dose dependent manner with test compounds prepared in dimethylsulfoxide (DMSO). In some cases, tissues were rinsed three times over a 5 minute period with Krebs-Heinseleit's solution (heated to 37° C. and aerated with 95% 02 and 5% CO2), allowed to stabilize at baseline, and then used for characterization of other test articles or DMSO effects. All data were collected using the HSE-ACAD software provided by Harvard Apparatus. […] EC50 values were calculated from concentration-response curves generated with GraphPad Prism Software.
Biological Activity Measurement by the Thoracic Aortic Rings Assay
The biological data for some of a compound of Table I, in comparison with the known compound, BAY 41-2272, as the reference compound, determined by the thoracic aorta ring assay of Example 5 are presented in Table 6 below.

| Compound | pulmonary vasodilation [1] | effect on mean arterial pressure [1] | systemic arterial oxygenation [1] | transpulmonary cGMP release [1] | also measured |
| --- | --- | --- | --- | --- | --- |
| Nc1nc(-c2nn(Cc3ccccc3F)c3ncccc23)nc(N)c1N1CCOCC1 [BAY 41-8543] | dose dependent pulmonary vasodilation | without significant effect on mean arterial pressure | increased systemic arterial oxygenation | increased transpulmonary cGMP release | magnitude and duration of pulmonary vasodilation induced by iNO ([1]; after inhaling the microparticles, lambs): augmented |
| Nc1nc(-c2nn(Cc3ccccc3F)c3ncccc23)ncc1C1CC1 [BAY 41-2272] | dose dependent pulmonary vasodilation | without significant effect on mean arterial pressure |  | increased transpulmonary cGMP release |  |
| CC(C)[N+]1(C)[C@@H]2CC[C@H]1C[C@@H](OC(=O)C(CO)c1ccccc1)C2 (stereo partly shown) [Ipratropium bromide] |  |  |  |  | pIC50 [2]: 9.07 |
| CC1(C(=O)Nc2cnc(-c3cc(-c4ccon4)n(Cc4cccc(F)c4F)n3)nc2N)CC1 [Compound 10] |  |  |  |  | Emax ([3]; Table 3A, top of concentration-response curve not fitted to 100%, 10 μM SNP, 100% = 30 μM BAY 41-2272 with 10 μM SNP, read-out: HEK assay Emax-unconstrained (Percent)): 100 to 120%; HEK MEC-10 ([3]; concentration that would elicit 10% of the Emax in the presence of 10 μM SNP, Table 3D): A (0.001 to <0.01 μM); pEC50 ([3]; Table 3D, read-out: HEK assay EC50): > 4.70; pEC50 ([3]; top of concentration-response curve not fitted to 100%, Table 3D, read-out: HEK assay EC50-unconstrained): 6.30 to 8.00; Aortic Ring Percent Relaxation at 1 μM ([4]; compound at 1 μM): G (100 to <120%); Aortic Ring Percent Relaxation at 3 μM ([4]; compound at 3 μM): G (100 to <120%); Aortic Ring Percent Relaxation at 10 μM ([4]; compound at 10 μM): G (100 to <120%); pEC50 ([4]; read-out: Aortic Ring EC50): > 5.70 |
| O=C(O)CCCCN(CCc1ccccc1OCc1ccc(CCc2ccccc2)cc1)Cc1ccc(C(=O)O)cc1 [BAY 58-2667] | dose dependent pulmonary vasodilation | without significant effect on mean arterial pressure | increased systemic arterial oxygenation | increased transpulmonary cGMP release | pulmonary vasodilation and transpulmonary cGMP release after treatment with ODQ ([1]; inhaled microparticles after intravenous ODQ, lambs): greatly enhanced |
